In patent publication US6809091B1, “Substances capable of inducing apoptosis” (Takara Bio Inc., priority 1998, dated 2004):

Tests used:
U937 cells = experiment: cell growth of U937 cells, Premix WST-1; format: cell-based, human
Protocol: (1) U937 cells (ATCC CRL-1593) which were […] established from pleural effusion of patients suffering from […] were suspended in an RPMI 1640 medium containing 10% of FBS to make its concentration 5×10^5 cells/ml and each 100 μl of the suspension was placed in each well of a 96-well microtiter plate. […] The mixture was incubated at 37° C. in the presence of carbon dioxide gas and, after 24, 48 and 72 hours, 10 μl of Premix WST-1 (MK 400; manufactured by Takara Shuzo) were added. The mixture was made to react at 37° C. for three hours and the value (A450-650) obtained by subtracting the absorbance at 650 nm (A650) from that at 450 nm (A450) was defined as a degree of cell growth.

[1] = test system: hepatoblastoma HepG2 cells; experiment: cell growth of HepG2 cells, Premix WST-1; format: cell-based, human
Protocol: HepG2 cells (ACTT HB-8065) which were the cell strains established from the patients suffering from primary hepatoblastoma were suspended in a DMEM medium (manufactured by Gibco) containing 10% of FBS (manufactured by BioWhittaker) to an extent of 3.8×10^3 cells/ml, each 200 μl of the suspension were placed in each well of a 96-well microtiter plate and incubated at 37° C. in the presence of 5% carbon dioxide gas until the cells saturated in an incubator, the medium was exchanged, then 4-hydroxy-2-cyclopenten-1-one or […], the mixture was incubated for 24, 48 or 72 hours, 10 μl of Premix WST-1 (MK 400; manufactured by Takara Shuzo) were added thereto, the mixture was made to react at 37° C. for three hours and the value (A450-650) obtained by subtracting the absorbance at 650 nm (A650) from that at 450 nm (A450) was defined as a degree of cell growth.

[2] = test system: heat shock protein of 70 kDa in HL-60; experiment: induction of heat shock protein of 70 kDa, SDS-PAGE and blotting; format: cell-based, human; parameters: key: “−” means no induction; “±” means a little induction; “+” shows the intensity of induction and the more the “+”, the more the induction; ++: “+” shows the intensity of induction and the more the “+”, the more the induction; +++: “+” shows the intensity of induction and the more the “+”, the more the induction; settings: six hours
Protocol: Each 5 ml of an RPMI 1640 medium containing 10% of FBS containing 2×10^5 cells/ml of HL-60 (ATCC CCL-240) were placed in each well of a six-well plate, incubated at 37° C. for 24 hours in the presence of 5% CO2, then 4,5-dihydroxy-2-pentenal was added to make the final concentration 0, 12.5, 25, 50 or 100 μM or 4-hydroxy-2-cyclopenten-1-one was added to make the final concentration 0, 2.5, 5, 10, 20, 40 or 80 μM and the mixture was incubated for six hours more.
After completion of the incubation, cell numbers were counted and then the cells were recovered by centrifugation and washed with PBS to prepare the cells treated with each of the samples. In addition, cells which were heated at 45° C. for five minutes followed by subjecting to the same incubation were prepared as well.
The cells treated as such were then subjected to an SDS-PAGE according to a method mentioned in “Molecular Cloning” (Cold Spring Harbor Laboratory Press, 1989). Thus, the cells were suspended in an SDS-PAGE sample buffer to make the concentration 2.5×10^6 cells/ml, the resulting cell suspension was treated at 100° C. for ten minutes, each 5 μl thereof were applied to two sheets of SDS-PAGE gel (a 5% stacking gel and a 10% separation gel) and an electrophoresis was carried out. One of the gels was stained with Coomassie while another was subjected to a blotting to polyvinylidene difluoride transfer membrane (Immobilon™ manufactured by MILLIPORE; catalog no. IPVH000-10). This membrane was subjected to a blocking overnight at 4° C. using Block Ace (manufactured by Dainippon Pharmaceutical; catalog no. UK-B25).
The membrane which was subjected to a blocking as such was made to react with monoclonal antibody HSP 72/73 (Ab-1) (manufactured by Oncogene Research Products; catalog no. HSP01) which specifically reacted with heat-induced heat shock protein of 70 kDa, washed with TBS containing 0.05% Tween 20 and further washed with TBS. After that, it was made to react with peroxidase-compounded secondary antibody HRP-Rabbit Anti Mouse IgG (H+L) (manufactured by ZYMED Laboratories; catalog no. 61-6520) and washed as same as in the previous operation. The membrane which was made to react with the primary antibody and the secondary antibody as such was made to react with RENAISSANCE™ (a chemiluminol reagent manufactured by Dupont NEN, catalog no. NEL-100) and then exposed to X-ray film to confirm the induction of the heat shock protein of 70 kDa.

[3] = test system: heat shock protein of 70 kDa in HL-60; experiment: as above; format: cell-based, human; parameters: key: “−” means no induction; “±” means a little induction; “+” shows the intensity of induction and the more the “+”, the more the induction; ++: “+” shows the intensity of induction and the more the “+”, the more the induction; +++: “+” shows the intensity of induction and the more the “+”, the more the induction; settings: six hours; remark: listed apart in the source
human FGF-β = experiment: cytokine production in DSEK cells, ELISA; format: cell-based; settings: DSEK cell incubation, supernatant every 24 hours
Protocol: Now, in the DSEK cell incubation, 150 μl/well of the supernatant liquid of the medium were recovered every 24 hours and influence of 4-hydroxy-2-cyclopenten-1-one or 4,5-dihydroxy-2-pentenal on the production of cytokines (human TGF-β, human FGF-β, human IL-1α and human IL-10) was measured using an ELISA-kit specific to each of the cytokine (the kit manufactured by INTERGEN or human FGF-β and human IL-10; and the kit manufactured by Promega for human IL-1α and human TGF-β).

Row | SMILES | Degree of Cell Growth (U937 cells; 50 μM, 24 hours) [A450-650] | Degree of Cell Growth (U937 cells; 50 μM, 48 hours) [A450-650] | Degree of Cell Growth (U937 cells; 50 μM, 72 hours) [A450-650] | Degree of Cell Growth (U937 cells; 75 μM, 24 hours) [A450-650] | Degree of Cell Growth (U937 cells; 75 μM, 48 hours) [A450-650] | Degree of Cell Growth (U937 cells; 75 μM, 72 hours) [A450-650] | Degree of Cell Growth (U937 cells; 100 μM, 24 hours) [A450-650] | Degree of Cell Growth (U937 cells; 100 μM, 48 hours) [A450-650] | Degree of Cell Growth (U937 cells; 100 μM, 72 hours) [A450-650] | Degree of Cell Growth (U937 cells; 150 μM, 24 hours) [A450-650] | Degree of Cell Growth (U937 cells; 150 μM, 48 hours) [A450-650] | Degree of Cell Growth (U937 cells; 150 μM, 72 hours) [A450-650] | Degree of Cell Growth (U937 cells; 200 μM, 24 hours) [A450-650] | Degree of Cell Growth (U937 cells; 200 μM, 48 hours) [A450-650] | Degree of Cell Growth (U937 cells; 200 μM, 72 hours) [A450-650] | Degree of Cell Growth ([1]; 25 μM, 24 hours) [A450-650] | Degree of Cell Growth ([1]; 25 μM, 48 hours) [A450-650] | Degree of Cell Growth ([1]; 25 μM, 72 hours) [A450-650] | Degree of Cell Growth ([1]; 50 μM, 24 hours) [A450-650] | Degree of Cell Growth ([1]; 50 μM, 48 hours) [A450-650] | other results
1 | O=CC=CC(O)CO (single isomer, unassigned) [4,5-dihydroxy-2-pentenal, trans-4,5-dihydroxy-2-pentenal] | 0.821 | 1.471 | 1.245 | 0.606 | 0.879 | 0.862 | 0.560 | 0.948 | 0.597 | 0.505 | 0.823 | 0.465 | 0.370 | 0.644 | 0.753 | 3.39 | 2.69 | 1.70 | 1.97 | 2.96 | Degree of Cell Growth ([1]; 50 μM, 72 hours): 1.70 A450-650; Degree of Cell Growth ([1]; 100 μM, 24 hours): 1.81 A450-650; Degree of Cell Growth ([1]; 100 μM, 48 hours): 2.70 A450-650; Degree of Cell Growth ([1]; 100 μM, 72 hours): 0.89 A450-650; Degree of Cell Growth ([1]; 150 μM, 24 hours): 1.40 A450-650; Degree of Cell Growth ([1]; 150 μM, 48 hours): 0.79 A450-650; Degree of Cell Growth ([1]; 150 μM, 72 hours): 0.35 A450-650; intensity of induction of heat shock protein of 70 kDa ([2]; HL-60, 25 μM): ±; intensity of induction of heat shock protein of 70 kDa ([2]; HL-60, 50 μM): +++; intensity of induction of heat shock protein of 70 kDa ([2]; HL-60, 100 μM): −; intensity of induction of heat shock protein of 70 kDa ([3]; HL-60, 1.25 μM): −
2 | Nc1nc2c(ncn2C2C=CC(=O)C2)c(=O)[nH]1 (stereo not drawn) [4-(9-guaninyl)-2-cyclopenten-1-one] |  |  |  |  |  |  |  |  |  |  |  |  |  |  |  |  |  |  |  |  | production of human FGF-β (human FGF-β): inhibited
3 | O=C1C=CC(O)C1 (stereo not drawn) [4-hydroxy-2-cyclopenten-1-one] | 0.501 | 0.930 | 0.875 | 0.557 | 0.968 | 0.821 | 0.591 | 1.054 | 0.532 | 0.524 | 1.126 | 0.478 | 0.353 | 0.643 | 0.338 | 1.30 | 0.70 | 0.49 | 1.38 | 0.81 | production of human FGF-β (human FGF-β): inhibited; Degree of Cell Growth ([1]; 50 μM, 72 hours): 0.47 A450-650; Degree of Cell Growth ([1]; 100 μM, 24 hours): 1.31 A450-650; Degree of Cell Growth ([1]; 100 μM, 48 hours): 0.56 A450-650; Degree of Cell Growth ([1]; 100 μM, 72 hours): 0.35 A450-650; Degree of Cell Growth ([1]; 150 μM, 24 hours): 1.23 A450-650; Degree of Cell Growth ([1]; 150 μM, 48 hours): 0.43 A450-650; Degree of Cell Growth ([1]; 150 μM, 72 hours): 0.30 A450-650; intensity of induction of heat shock protein of 70 kDa ([2]; HL-60, 5 μM): ±; intensity of induction of heat shock protein of 70 kDa ([2]; HL-60, 20 μM): +++; intensity of induction of heat shock protein of 70 kDa ([2]; HL-60, 40 μM): ++; intensity of induction of heat shock protein of 70 kDa ([2]; HL-60, 80 μM): ±; intensity of induction of heat shock protein of 70 kDa ([3]; HL-60, 2.5 μM): −; intensity of induction of heat shock protein of 70 kDa ([3]; HL-60, 10 μM): +
